Laboratory results from PubChem BioAssay AID312 (DTP/NCI, 2004).
Several values for one entry are separate records, joined by “and”; a condition that tells them apart may be missing. Equal entries are not always repeated. Inconclusive results and toxic doses are left out.

Tested on: BDF1 mice, C1498 leukemia ip, median survival T/C
Experiment: NCI In Vivo Anticancer Drug Screen. Data for tumor model C1498 Myeloid Leukemia (intraperitoneal) in B6D2F1 (BDF1) mice
Conditions: endpoint: median survival time, higher = longer survival
Protocol: The antitumor activity of compounds was measured in mice bearing transplantable tumors. Survival or tumor size were measured and the results are expressed as the measurement made in the treated group (T) divided by the measurement made in the vehicle treated control group (C). The tumor model used in this assay is C1498 Myeloid Leukemia (intraperitoneal) in B6D2F1 (BDF1) mice

[1] = dose: 20.0 mg/kg/injection, schedule: Q01DX010 (ip), vehicle: saline
[2] = dose: 2.0 mg/kg/injection, schedule: Q01DX010 (ip), vehicle: saline
[3] = dose: 4.0 mg/kg/injection, schedule: Q01DX010 (ip), vehicle: saline
[4] = dose: 16.0 mg/kg/injection, schedule: Q01DX010 (ip), vehicle: saline
[5] = dose: 8.0 mg/kg/injection, schedule: Q01DX010 (ip), vehicle: saline
[6] = dose: 32.0 mg/kg/injection, schedule: Q01DX010 (ip), vehicle: saline
[7] = dose: 25.0 mg/kg/injection, schedule: Q01DX010 (ip), vehicle: saline
[8] = dose: 50.0 mg/kg/injection, schedule: Q01DX010 (ip), vehicle: saline
[9] = dose: 100.0 mg/kg/injection, schedule: Q01DX010 (ip), vehicle: saline

With Nc1nc2n[nH]nc2c(=O)[nH]1 the T/C (dose: 25.0 mg/kg/injection, schedule: Q01DX010 (ip), vehicle: alkali diluted with saline) was 92 % of control and 96 % of control, the T/C (dose: 50.0 mg/kg/injection, schedule: Q01DX010 (ip), vehicle: alkali diluted with saline) was 92 % of control and 96 % of control and the T/C (dose: 100.0 mg/kg/injection, schedule: Q01DX010 (ip), vehicle: alkali diluted with saline) was 100 % of control and 89 % of control. The T/C (dose: 200.0 mg/kg/injection, schedule: Q01DX010 (ip), vehicle: alkali diluted with saline) was 96 % of control.
For Cc1cc(N(CCCl)CCCl)ccc1N=Nc1ccccc1C(=O)O, the T/C [1] was 113 % of control.
With C=CC(CN1CC1)OC(C)=O (configuration not stated) the T/C [2] was 104 % of control, the T/C [3] was 122 % of control and the T/C [4] was 104 % of control.
CC[C@]1(O)C[C@H]2CN(CCc3c([nH]c4ccccc34)[C@@](C(=O)OC)(c3cc4c(cc3OC)N(C=O)[C@H]3[C@@](O)(C(=O)OC)[C@H](OC(C)=O)[C@]5(CC)C=CCN6CC[C@]43[C@@H]65)C2)C1 was tested, and the T/C (dose: 1.0 mg/kg/injection, schedule: Q04DX003 (ip), vehicle: saline) was 112 % of control, the T/C (dose: 1.5 mg/kg/injection, schedule: Q04DX003 (ip), vehicle: saline) was 115 % of control and the T/C (dose: 2.0 mg/kg/injection, schedule: Q04DX003 (ip), vehicle: saline) was 118 % of control.
In the case of Nc1nc(F)nc2c1ncn2C1OC(CO)C(O)C1O (configuration not stated), the T/C (dose: 0.5 mg/kg/injection, schedule: Q01DX010 (ip), vehicle: saline) is reported as 100 % of control, the T/C (dose: 1.0 mg/kg/injection, schedule: Q01DX010 (ip), vehicle: saline) is reported as 100 % of control and 105 % of control and 108 % of control and the T/C [2] is reported as 100 % of control and 105 % of control and 108 % of control. For the same compound, the T/C [3] was 100 % of control and 108 % of control and 110 % of control.
O=C(Nc1ccc(C2=NCCN2)cc1)c1cccc(C(=O)Nc2ccc(C3=NCCN3)cc2)c1 was tested, and the T/C [5] was 92 % of control and 96 % of control, the T/C [4] was 96 % of control and 103 % of control and the T/C [6] was 115 % of control and 117 % of control.
CCN(CC)CCNc1ccc(C)c2sc3ccccc3c(=O)c12 was tested, and the T/C [7] was 113 % of control and 118 % of control, the T/C [8] was 118 % of control and 122 % of control and the T/C [9] was 159 % of control and 172 % of control.
In the case of S=P(N1CCOCC1)(N1CC1)N1CC1, the T/C (dose: 2.5 mg/kg/injection, schedule: Q01DX010 (ip), vehicle: saline) is reported as 95 % of control and 104 % of control, the T/C (dose: 5.0 mg/kg/injection, schedule: Q01DX010 (ip), vehicle: saline) is reported as 95 % of control and 100 % of control and the T/C (dose: 10.0 mg/kg/injection, schedule: Q01DX010 (ip), vehicle: saline) is reported as 100 % of control and 104 % of control. The T/C [1] was 104 % of control.
In the case of N=C(N)c1ccc(Nc2ccc(C(=N)N)cc2)cc1, the T/C (dose: 1.5 mg/kg/injection, schedule: Q01DX010 (ip), vehicle: saline) is reported as 100 % of control, the T/C (dose: 3.0 mg/kg/injection, schedule: Q01DX010 (ip), vehicle: saline) is reported as 90 % of control and the T/C (dose: 6.0 mg/kg/injection, schedule: Q01DX010 (ip), vehicle: saline) is reported as 86 % of control. For the same compound, the T/C (dose: 12.0 mg/kg/injection, schedule: Q01DX010 (ip), vehicle: saline) was 86 % of control.
CN(C)/N=N/c1nc[nH]c1C(N)=O was tested, and the T/C [7] was 108 % of control, the T/C [8] was 112 % of control and the T/C [9] was 158 % of control. For the same compound, the T/C (dose: 200.0 mg/kg/injection, schedule: Q01DX010 (ip), vehicle: saline) was 158 % of control and 159 % of control and the T/C (dose: 400.0 mg/kg/injection, schedule: Q01DX010 (ip), vehicle: saline) was 118 % of control.
For COc1cc(C(=O)O)c2c(c1C)OC(=O)c1c(C)cc(O)c(C=O)c1O2, the T/C [5] was 100 % of control, the T/C [4] was 108 % of control and the T/C [6] was 95 % of control.
